Target: TRPV1 (Rattus norvegicus, UniProt O35433)
Test: Fura-2 calcium imaging in rat DRG neurons
Assay type: cell-based

TRPV1, sequence (O35433 whole entry): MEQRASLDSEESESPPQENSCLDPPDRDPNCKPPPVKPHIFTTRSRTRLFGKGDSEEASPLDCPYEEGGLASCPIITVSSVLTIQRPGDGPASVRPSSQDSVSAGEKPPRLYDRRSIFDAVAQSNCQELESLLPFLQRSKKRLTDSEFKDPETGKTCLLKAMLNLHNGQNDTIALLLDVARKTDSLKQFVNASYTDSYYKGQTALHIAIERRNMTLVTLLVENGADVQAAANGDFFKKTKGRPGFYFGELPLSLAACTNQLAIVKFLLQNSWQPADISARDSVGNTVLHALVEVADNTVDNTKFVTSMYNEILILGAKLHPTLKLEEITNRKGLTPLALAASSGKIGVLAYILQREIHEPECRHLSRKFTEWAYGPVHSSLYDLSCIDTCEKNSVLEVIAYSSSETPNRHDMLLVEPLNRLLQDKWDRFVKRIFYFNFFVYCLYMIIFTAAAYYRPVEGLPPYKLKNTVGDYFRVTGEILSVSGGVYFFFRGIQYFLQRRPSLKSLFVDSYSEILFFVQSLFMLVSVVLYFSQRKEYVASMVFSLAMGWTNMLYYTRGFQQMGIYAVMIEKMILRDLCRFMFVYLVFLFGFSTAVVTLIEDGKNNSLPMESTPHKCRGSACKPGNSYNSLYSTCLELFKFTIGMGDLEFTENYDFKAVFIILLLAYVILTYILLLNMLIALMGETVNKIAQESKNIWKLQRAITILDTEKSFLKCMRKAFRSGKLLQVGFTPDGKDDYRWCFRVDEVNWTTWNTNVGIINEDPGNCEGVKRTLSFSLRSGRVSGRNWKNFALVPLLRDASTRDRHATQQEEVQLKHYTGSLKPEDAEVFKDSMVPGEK

C=C(C)[C@@H]1CCC(C)=C[C@H]1c1c(O)cc(CCCCC)cc1O [CBD, Cannabidiol]
EC50: 1 to 10 µM
